Twelve molecules from US11339130B1 (Blade Therapeutics, Inc., priority 2016, dated 2022) can be followed below.

Assay [1] addresses T1, Human Calpain 1/NS1 (Homo sapiens, UniProt P07384).
T1 sequence (P07384 1-714): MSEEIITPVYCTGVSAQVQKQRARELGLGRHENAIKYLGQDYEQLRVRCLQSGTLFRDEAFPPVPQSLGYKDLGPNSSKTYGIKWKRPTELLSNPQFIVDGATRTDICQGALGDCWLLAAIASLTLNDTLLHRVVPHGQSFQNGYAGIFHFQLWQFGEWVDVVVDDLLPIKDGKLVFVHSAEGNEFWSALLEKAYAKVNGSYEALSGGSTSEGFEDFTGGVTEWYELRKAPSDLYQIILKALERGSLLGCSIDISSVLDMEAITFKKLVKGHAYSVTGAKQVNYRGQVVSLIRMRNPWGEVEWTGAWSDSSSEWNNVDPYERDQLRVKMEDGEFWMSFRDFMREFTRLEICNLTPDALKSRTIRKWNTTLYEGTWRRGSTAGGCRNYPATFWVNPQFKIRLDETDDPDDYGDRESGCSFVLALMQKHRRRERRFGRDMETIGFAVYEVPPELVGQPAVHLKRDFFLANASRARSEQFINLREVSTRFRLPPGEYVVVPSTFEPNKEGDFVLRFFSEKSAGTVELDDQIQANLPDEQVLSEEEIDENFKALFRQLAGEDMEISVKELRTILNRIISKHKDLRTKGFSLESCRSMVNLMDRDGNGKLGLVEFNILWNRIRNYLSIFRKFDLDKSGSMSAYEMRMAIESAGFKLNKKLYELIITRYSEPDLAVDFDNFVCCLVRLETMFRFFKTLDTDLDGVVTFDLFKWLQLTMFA
T1 sequence (P04632 1-268 partner): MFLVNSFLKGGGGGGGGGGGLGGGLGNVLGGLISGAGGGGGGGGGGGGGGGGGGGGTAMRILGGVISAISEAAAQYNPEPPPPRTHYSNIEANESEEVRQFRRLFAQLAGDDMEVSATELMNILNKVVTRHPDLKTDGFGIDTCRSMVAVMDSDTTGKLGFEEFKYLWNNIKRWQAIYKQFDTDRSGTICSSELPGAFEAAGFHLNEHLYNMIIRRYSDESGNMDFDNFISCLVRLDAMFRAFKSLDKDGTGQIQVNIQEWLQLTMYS
Kind of assay: Calpain inhibition continuous fluorescence (FRET) assay, Human Calpain 1/NS1. It counts as biochemical. Particulars: read-out: Human Calpain 1/NS1 IC50. The procedure, abridged:
(§1)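 Buffer 50 mM Tris pH 7.5/100 mM NaCl/1 mM DTT; enzyme + cpd preinc 25C; start w/ FRET substrate + CaCl2; kinetic 490/520 nm, 10 min; slopes 1-5 min; 4-PL IC50.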

The target in assay [2] is T2, Human Calpain 9/NS1 (Homo sapiens, UniProt O14815).
T2 sequence (O14815 1-690): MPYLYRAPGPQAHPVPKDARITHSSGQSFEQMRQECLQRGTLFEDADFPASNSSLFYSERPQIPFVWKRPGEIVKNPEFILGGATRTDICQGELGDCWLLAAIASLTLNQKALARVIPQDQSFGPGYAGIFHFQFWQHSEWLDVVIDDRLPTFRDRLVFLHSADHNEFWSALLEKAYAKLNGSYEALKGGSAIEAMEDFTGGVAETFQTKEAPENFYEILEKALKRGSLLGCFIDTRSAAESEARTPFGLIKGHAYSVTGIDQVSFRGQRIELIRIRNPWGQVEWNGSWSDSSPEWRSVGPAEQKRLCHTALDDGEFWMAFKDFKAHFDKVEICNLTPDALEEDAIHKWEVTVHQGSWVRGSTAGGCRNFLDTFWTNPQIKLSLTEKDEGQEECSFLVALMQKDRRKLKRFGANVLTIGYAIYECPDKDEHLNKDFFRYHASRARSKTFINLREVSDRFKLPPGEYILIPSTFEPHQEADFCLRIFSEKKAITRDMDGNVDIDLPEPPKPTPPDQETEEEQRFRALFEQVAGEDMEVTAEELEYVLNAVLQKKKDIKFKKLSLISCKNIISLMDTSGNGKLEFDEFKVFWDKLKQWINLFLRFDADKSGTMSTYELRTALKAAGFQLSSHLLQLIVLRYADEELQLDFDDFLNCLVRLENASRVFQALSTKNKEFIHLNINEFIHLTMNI
T2 sequence (P04632 1-268 partner): T1 sequence (P04632 1-268 partner)
Nature of the assay: Calpain inhibition continuous fluorescence (FRET) assay, Human Calpain 9/NS1. It counts as biochemical. Particulars: read-out: Human Calpain 9/NS1 IC50. In a few lines:
as §1

Assay [3] concerns the target T3, Human Calpain 2/NS1 (Homo sapiens, UniProt P17655).
T3 sequence (P17655 1-700): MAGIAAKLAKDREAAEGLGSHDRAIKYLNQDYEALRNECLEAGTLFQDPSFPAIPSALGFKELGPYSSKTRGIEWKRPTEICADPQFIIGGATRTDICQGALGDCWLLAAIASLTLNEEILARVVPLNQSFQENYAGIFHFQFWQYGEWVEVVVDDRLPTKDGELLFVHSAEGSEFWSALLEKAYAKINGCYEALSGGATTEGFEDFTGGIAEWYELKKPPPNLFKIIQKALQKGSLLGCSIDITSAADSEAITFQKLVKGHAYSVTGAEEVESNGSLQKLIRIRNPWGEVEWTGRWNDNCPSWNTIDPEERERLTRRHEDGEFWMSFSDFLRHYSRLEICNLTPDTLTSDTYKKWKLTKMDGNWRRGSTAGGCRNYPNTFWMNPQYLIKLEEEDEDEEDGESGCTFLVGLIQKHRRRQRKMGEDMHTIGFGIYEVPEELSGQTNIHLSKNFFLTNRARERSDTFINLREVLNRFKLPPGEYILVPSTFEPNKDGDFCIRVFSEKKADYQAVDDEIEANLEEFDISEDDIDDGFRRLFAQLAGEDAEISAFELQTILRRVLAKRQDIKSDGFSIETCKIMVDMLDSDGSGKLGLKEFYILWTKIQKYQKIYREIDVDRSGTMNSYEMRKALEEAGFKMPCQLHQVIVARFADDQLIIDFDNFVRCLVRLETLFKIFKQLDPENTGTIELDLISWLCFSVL
T3 sequence (P04632 1-268 partner): T1 sequence (P04632 1-268 partner)
Nature of the assay: Calpain inhibition continuous fluorescence (FRET) assay, Human Calpain 2/NS1. It counts as biochemical. The note with it: read-out: Human Calpain 2/NS1 IC50. The procedure, abridged: as §1

The subject of assay [4] is Calpain activity in SH-SY5Y cells. Kind of assay: SH-SY5Y + AMC fluorescence assay (Suc-LLVY-AMC substrate). It counts as cell-based. The note with it: read-out: SH-SY5Y + AMC IC50.
Assay [5] has as its system Calpain activity in SH-SY5Y cells (SBDP-150). Kind of assay: SH-SY5Y Spectrin western blot assay (SBDP-150 breakdown product, A23187-induced). It counts as cell-based. The note with it: Homo sapiens, SH-SY5Y cells, read-out: SH-SY5Y Spectrin IC50.
[6] abbreviates: A23187-induced SBDP-150, western blot.
[7] abbreviates: Column D, A23187-induced SBDP-150.

Where two headings read alike, the source gives them in different places.

As to `Cc1ccccc1-c1oncc1C(=O)NC(Cc1ccccc1)C(=O)C(N)=O` (stereo not drawn) [Compound 557, N-(4-amino-3,4-dioxo-1-phenylbutan-2-yl)-5-(o-tolyl)isoxazole-4-carboxamide], the IC50 was under 3 µM in assay [1]; under 3 µM in assay [2]; under 3 µM in assay [3]; under 10 µM in assay [4]; over 25 µM in assay [5] (setting [6]).

Consider `Cc1nc(-c2ccccn2)c(C(=O)N[C@@H](Cc2ccccc2)C(=O)C(N)=O)o1` [Compound 266, (S)—N-(4-amino-3,4-dioxo-1-phenylbutan-2-yl)-2-methyl-4-(pyridin-2-yl)oxazole-5-carboxamide], for which the IC50 in assay [1] (Column A) is under 3 µM; in assay [2] (Column C) it was under 3 µM; in assay [3] (Column B), under 3 µM; in assay [4] (Column E) it was over 25 µM; in assay [5] (setting [7]) it was over 25 µM.

Take `NC(=O)C(=O)C(Cc1ccccc1)NC(=O)c1nsnc1-c1cnccn1` (stereo not drawn) [Compound 365, N-(4-amino-3,4-dioxo-1-phenylbutan-2-yl)-4-(pyrazin-2-yl)-1,2,5-thiadiazole-3-carboxamide]: the IC50 in assay [1] was under 3 µM; in assay [2], under 3 µM; in assay [3], under 3 µM; in assay [4], under 10 µM; in assay [5] (setting [6]) it was under 10 µM.

Turning to `Cc1cc(C(=O)N[C@@H](Cc2ccccc2)C(=O)C(N)=O)n(-c2ccccn2)n1` [Compound 12, (S)—N-(4-amino-3,4-dioxo-1-phenylbutan-2-yl)-3-methyl-1-(pyridin-2-yl)-1H-pyrazole-5-carboxamide], the IC50 is under 3 µM in assay [1] (Column A); under 3 µM in assay [2] (Column C); under 3 µM in assay [3] (Column B); under 10 µM in assay [4] (Column E); 10 to 25 µM in assay [5] (setting [7]).

With `Cc1cc(C(=O)N[C@@H](Cc2ccccc2)C(=O)C(N)=O)n(-c2ccc(OC(F)(F)F)cc2)n1` [Compound 19, (S)—N-(4-amino-3,4-dioxo-1-phenylbutan-2-yl)-3-methyl-1-(4-(trifluoromethoxy)phenyl)-1H-pyrazole-5-carboxamide], the IC50 in assay [1] (Column A) was under 3 µM; in assay [2] (Column C), under 3 µM; in assay [3] (Column B), under 3 µM; in assay [4] (Column E), over 25 µM; in assay [5] (setting [7]), 10 to 25 µM.

Regarding `Cn1cc(C(=O)NC(Cc2ccccc2)C(=O)C(N)=O)c(-c2ccc3ccccc3n2)n1` (stereo not drawn) [Compound 587, N-(4-amino-3,4-dioxo-1-phenylbutan-2-yl)-1-methyl-3-(quinolin-2-yl)-1H-pyrazole-4-carboxamide], the IC50 in assay [1] is under 3 µM; in assay [2] it was 3 to 10 µM; in assay [3], under 3 µM; in assay [4] it was over 25 µM; in assay [5] (setting [6]), over 25 µM.

Regarding `Cc1cc(C(=O)N[C@@H](Cc2ccccc2)C(=O)C(N)=O)n(-c2ccc(CNS(=O)(=O)c3ccccc3)cc2)n1` [Compound 156, (S)—N-(4-amino-3,4-dioxo-1-phenylbutan-2-yl)-3-methyl-1-(4-(phenylsulfonamidomethyl)phenyl)-1H-pyrazole-5-carboxamide], the IC50 in assay [1] (Column A) is under 3 µM; in assay [2] (Column C), under 3 µM; in assay [3] (Column B), under 3 µM; in assay [4] (Column E), over 25 µM; in assay [5] (setting [7]) it was under 10 µM.

Turning to `Cc1cc(C(=O)NC(C=O)Cc2ccccc2)n(-c2cccc(COCc3ccccc3)c2)n1` (stereo not drawn) [Compound 400, 1-(3-((benzyloxy)methyl)phenyl)-3-methyl-N-(1-oxo-3-phenylpropan-2-yl)-1H-pyrazole-5-carboxamide], the IC50 is under 3 µM in assay [1]; under 3 µM in assay [2]; under 3 µM in assay [3]; over 25 µM in assay [4]; over 25 µM in assay [5] (setting [6]).

`NC(=O)C(=O)[C@H](Cc1ccccc1)NC(=O)c1nonc1-c1ccccc1` [Compound 293, (S)—N-(4-amino-3,4-dioxo-1-phenylbutan-2-yl)-4-phenyl-1,2,5-oxadiazole-3-carboxamide]: the IC50 in assay [1] (Column A) is under 3 µM; in assay [2] (Column C), under 3 µM; in assay [3] (Column B), under 3 µM; in assay [4] (Column E) it was under 10 µM; in assay [5] (setting [7]) it was 10 to 25 µM.

For `NC(=O)C(=O)C(Cc1ccccc1)NC(=O)c1nsnc1-c1ccc2c(c1)C(=O)N(Cc1ccccc1)C2` (stereo not drawn) [Compound 378, N-(4-amino-3,4-dioxo-1-phenylbutan-2-yl)-4-(2-benzyl-3-oxoisoindolin-5-yl)-1,2,5-thiadiazole-3-carboxamide], the IC50 was under 3 µM in assay [1]; under 3 µM in assay [2]; under 3 µM in assay [3]; over 25 µM in assay [4]; under 10 µM in assay [5] (setting [6]).

Regarding `Cc1noc(-c2ccccc2)c1C(=O)N[C@@H](Cc1c[nH]c2ccccc12)C(=O)C(N)=O` [Compound 57, (S)—N-(4-amino-1-(1H-indol-3-yl)-3,4-dioxobutan-2-yl)-3-methyl-5-phenylisoxazole-4-carboxamide], the IC50 is under 3 µM in assay [1] (Column A); under 3 µM in assay [2] (Column C); under 3 µM in assay [3] (Column B); 10 to 25 µM in assay [4] (Column E); under 10 µM in assay [5] (setting [7]).

As for `Cc1ccccc1-c1nsnc1C(=O)NC(Cc1ccccc1)C(=O)C(N)=O` (stereo not drawn) [Compound 326, N-(4-amino-3,4-dioxo-1-phenylbutan-2-yl)-4-(o-tolyl)-1,2,5-thiadiazole-3-carboxamide], the IC50 in assay [1] was under 3 µM; in assay [2], under 3 µM; in assay [3], under 3 µM; in assay [4], under 10 µM; in assay [5] (setting [6]) it was 10 to 25 µM.
